This series relates to CYP1A. Briefly: CYP1A induction in transplanted murine subcutaneous hepatic tissue, tissue staining (Example 3). The settings on record: 120 days after transplantation; intraperitoneal once a day for three days; tissue staining 24 hours after final administration. Format: in vivo, mouse. The protocol: The murine hepatic tissue cell sheet as obtained in Example 1 was transplanted by application into a murine subcutaneous site having undergone the induction of angiogenesis in accordance with the method of transplanting a hepatic cell sheet as shown in Example 1. One hundred twenty days after transplantation, 3-methylcholantrene (Sigma-Aldrich, St. Louis, Mo.) was intraperitoneally administered once a day and continuously for three days, and 24 hours after the final administration, the mouse was killed and the hepatic tissue prepared was subjected to tissue staining (Example 3). […] Further, CYP1A means CYP1A activity.

Take `Cc1ccc2cc3c(ccc4ccccc43)c3c2c1CC3` [3-methylcholantrene]: the “induction of CYP1A (CYP1A activity) in prepared murine subcutaneous hepatic tissue” value is reported as “strongly induced”.

These data come from US20100239498A1, “METHOD OF MAINTAINING THE FUNCTION OF LIVER TISSUE CELLS OVER LONG TIME” (priority 2006, published 2010).
